Ki data for 18 compounds are collected here from BindingDB's records for doi:10.1002/cbic.200700524 (Universit&#224, 2008).

The target of experiment [1] is Thymidylate synthase (Escherichia coli (strain K12), UniProt P0A884). In words: Inhibition Assay. The protocol: (§1) All compounds were screened for inhibitory activity against Lactobacillus casei thymidylate synthase (LcTS) and Escherichia coli thymidylate synthase (EsTS). The inhibition experiments were conducted by measuring the effects of the inhibitor at different concentrations on the initial velocity of the enzyme in the presence of a limited amount of the folate substrate.

Experiment [2] deals with T1, Thymidylate synthase (Lacticaseibacillus casei, UniProt P00469).
T1 sequence (P00469 whole entry): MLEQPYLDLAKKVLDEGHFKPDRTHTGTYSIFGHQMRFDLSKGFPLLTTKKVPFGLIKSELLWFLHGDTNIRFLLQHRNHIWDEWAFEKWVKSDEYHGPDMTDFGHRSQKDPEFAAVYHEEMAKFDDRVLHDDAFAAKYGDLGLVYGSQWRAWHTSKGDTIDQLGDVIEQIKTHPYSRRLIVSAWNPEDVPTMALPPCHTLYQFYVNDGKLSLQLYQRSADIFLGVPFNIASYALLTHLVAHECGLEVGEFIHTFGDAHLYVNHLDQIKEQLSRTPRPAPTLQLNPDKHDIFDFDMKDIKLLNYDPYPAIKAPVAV
The experiment is described as follows: Inhibition Assay. How it is done:
as §1

Sequence of Thymidylate synthase (Escherichia coli (strain K12), UniProt P0A884) (P0A884 whole entry): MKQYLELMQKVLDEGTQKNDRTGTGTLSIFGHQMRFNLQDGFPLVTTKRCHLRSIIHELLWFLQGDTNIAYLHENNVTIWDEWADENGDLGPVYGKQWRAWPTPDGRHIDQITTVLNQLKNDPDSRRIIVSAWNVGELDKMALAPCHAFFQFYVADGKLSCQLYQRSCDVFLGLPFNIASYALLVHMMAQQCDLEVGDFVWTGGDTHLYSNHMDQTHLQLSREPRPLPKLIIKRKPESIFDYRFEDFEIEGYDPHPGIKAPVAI

For `CN(C)c1cccc2c(S(=O)(=O)N[C@@H](Cc3cc(I)c(OS(=O)(=O)c4cccc5c(N(C)C)cccc45)c(I)c3)C(=O)O)cccc12` [Dansyl derivative, 2L], the Ki (usually a dissociation constant, usually derived from enzyme kinetics or from competition with a known ligand) is 8.2 µM at Thymidylate synthase [1] and 4.4 µM on Thymidylate synthase [2].

In the case of `CN(C)c1cccc2c(S(=O)(=O)Oc3c(I)cc4c(c3I)CN(S(=O)(=O)c3cccc5c(N(C)C)cccc35)[C@H](C(=O)O)C4)cccc12` [Dansyl derivative, 2R], the inhibition constant (Ki) turned out to be 7 µM at Thymidylate synthase [1] and 3.6 µM at Thymidylate synthase [2].

`CN(C)c1cccc2c(S(=O)(=O)Oc3ccc(C[C@H](NS(=O)(=O)c4ccc([N+](=O)[O-])cc4)C(=O)O)cc3)cccc12` [Dansyl derivative, 3L]: the Ki is above 1330 µM at Thymidylate synthase [1] and 2.5 µM at Thymidylate synthase [2].

For `CN(C)c1cccc2c(S(=O)(=O)Oc3ccc4c(c3)CN(S(=O)(=O)c3ccc([N+](=O)[O-])cc3)[C@H](C(=O)O)C4)cccc12` [Dansyl derivative, 3R], the Ki at Thymidylate synthase [1] came to 23 µM; on Thymidylate synthase [2], 5.9 µM.

With `CN(C)c1cccc2c(S(=O)(=O)Oc3ccc(C[C@H](NC(=O)c4ccc([N+](=O)[O-])cc4)C(=O)O)cc3)cccc12` [Dansyl derivative, 4L], the Ki at Thymidylate synthase [1] was above 1330 µM; on Thymidylate synthase [2] it was 15 µM.

In the case of `CN(C)c1cccc2c(S(=O)(=O)Oc3ccc4c(c3)CN(C(=O)c3ccc([N+](=O)[O-])cc3)[C@H](C(=O)O)C4)cccc12` [Dansyl derivative, 4R], the Ki on Thymidylate synthase [1] worked out at 36 µM; at Thymidylate synthase [2] it was 15 µM.

As to `CN(C)c1cccc2c(S(=O)(=O)Oc3ccc(C[C@H](NS(=O)(=O)c4ccc(C(F)(F)F)cc4[N+](=O)[O-])C(=O)O)cc3)cccc12` [Dansyl derivative, 5L], the results for the inhibitory constant (Ki) on Thymidylate synthase [1] and on Thymidylate synthase [2] were above 636 µM and 6.7 µM, respectively.

Turning to `CN(C)c1cccc2c(S(=O)(=O)Oc3ccc4c(c3)CN(S(=O)(=O)c3ccc(C(F)(F)F)cc3[N+](=O)[O-])[C@H](C(=O)O)C4)cccc12` [Dansyl derivative, 5R], the Ki is 61 µM at Thymidylate synthase [1] and 5.5 µM on Thymidylate synthase [2].

Consider `CN(C)c1cccc2c(S(=O)(=O)Oc3ccc(C[C@H](NS(=O)(=O)CC45CCC(C(=O)C4)C5(C)C)C(=O)O)cc3)cccc12` (stereo not given in full) [Dansyl derivative, 6L], for which the Ki was above 1340 µM on Thymidylate synthase [1] and 5.8 µM on Thymidylate synthase [2].

Turning to `CN(C)c1cccc2c(S(=O)(=O)Oc3ccc4c(c3)CN(S(=O)(=O)CC35CCC(C(=O)C3)C5(C)C)[C@H](C(=O)O)C4)cccc12` (stereo not given in full) [Dansyl derivative, 6R], the results for the Ki at Thymidylate synthase [1] and at Thymidylate synthase [2] were 131 µM and 23 µM, respectively.

As to `CN(C)c1cccc2c(S(=O)(=O)Oc3ccc(C[C@H](NC(=O)c4ccc5ccccc5c4)C(=O)O)cc3)cccc12` [Dansyl derivative, 7L], the Ki at Thymidylate synthase [1] was above 1470 µM; at Thymidylate synthase [2], 17 µM.

Regarding `CN(C)c1cccc2c(S(=O)(=O)Oc3ccc4c(c3)CN(C(=O)c3ccc5ccccc5c3)[C@H](C(=O)O)C4)cccc12` [Dansyl derivative, 7R], the inhibition constant Ki on Thymidylate synthase [1] was found to be 1530 µM; on Thymidylate synthase [2], 9.4 µM.

With `CN(C)c1cccc2c(S(=O)(=O)Oc3ccc(C[C@H](NS(=O)(=O)Cc4ccccc4)C(=O)O)cc3)cccc12` [Dansyl derivative, 8L], the Ki is above 1800 µM at Thymidylate synthase [1] and 4.7 µM on Thymidylate synthase [2].

For `CN(C)c1cccc2c(S(=O)(=O)Oc3ccc4c(c3)CN(S(=O)(=O)Cc3ccccc3)[C@H](C(=O)O)C4)cccc12` [Dansyl derivative, 8R], the inhibitory constant (Ki) on Thymidylate synthase [1] is 194 µM; at Thymidylate synthase [2] it was 10 µM.

Turning to `CN(C)c1cccc2c(S(=O)(=O)Oc3ccc(C[C@H](NS(=O)(=O)c4cc(Br)c(Br)s4)C(=O)O)cc3)cccc12` [Dansyl derivative, 9L], the Ki on Thymidylate synthase [1] was above 1330 µM; on Thymidylate synthase [2], 27 µM.

On to `CN(C)c1cccc2c(S(=O)(=O)Oc3ccc4c(c3)CN(S(=O)(=O)c3cc(Br)c(Br)s3)[C@H](C(=O)O)C4)cccc12` [Dansyl derivative, 9R], for which the figures for the inhibition constant Ki at Thymidylate synthase [1] and on Thymidylate synthase [2] were 60 µM and 4 µM, respectively.

In turn, `CN(C)c1cccc2c(S(=O)(=O)N[C@@H](Cc3ccc(OS(=O)(=O)c4cccc5c(N(C)C)cccc45)cc3)C(=O)O)cccc12` [Dansyl derivative, DDT, 1L] registered an inhibitory constant (Ki) at Thymidylate synthase [1] of 1.8 µM.

With `CN(C)c1cccc2c(S(=O)(=O)Oc3ccc4c(c3)CN(S(=O)(=O)c3cccc5c(N(C)C)cccc35)[C@H](C(=O)O)C4)cccc12` [Dansyl derivative, rigid DDT, 1R], the results for the inhibition constant Ki at Thymidylate synthase [1] and on Thymidylate synthase [2] were 13 µM and 0.8 µM, respectively.
